Source: ChEMBL document CHEMBL1909590, “Design, synthesis and docking studies of new quinoline-3-carbohydrazide derivatives as antitubercular agents” (2011)
In brackets after ≈: the same amount, converted by molar mass.

What was measured:
Assay type in all cases: functional
[1] = system: Mycobacterium tuberculosis; assay: Antimycobacterial activity against Mycobacterium tuberculosis H37Rv ATCC 27294 using compound level ranging from 1 to 100 ug/mL after 7 days by resazurin reduction test; details: H37Rv ATCC 27294, 168 h
[2] = system: Mycolicibacterium smegmatis; assay: Antimycobacterial activity against Mycobacterium smegmatis MC2 ATCC 19420 using compound level ranging from 1 to 100 ug/mL after 7 days by resazurin reduction test; details: MC2 ATCC 19420, 168 h
[3] = system: Mycolicibacterium fortuitum; assay: Antimycobacterial activity against Mycobacterium fortuitum ATCC 19542 using compound level ranging from 1 to 100 ug/mL after 7 days by resazurin reduction test; details: ATCC 19542, 168 h
[4] = system: Mycobacterium tuberculosis; assay: Growth inhibition of Mycobacterium tuberculosis H37Rv ATCC 27294 using compound level ranging from 1 to 100 ug/mL after 7 days by resazurin reduction test
[5] = system: Mycobacterium tuberculosis; assay: Antimycobacterial activity against Mycobacterium tuberculosis H37Rv ATCC 27294 using compound level ranging from 0.3125 to 5 ug/mL after 7 days by resazurin reduction test; details: H37Rv ATCC 27294, 168 h
[6] = system: Mycolicibacterium smegmatis; assay: Antimycobacterial activity against Mycobacterium smegmatis MC2 ATCC 19420 using compound level ranging from 0.3125 to 5 ug/mL after 7 days by resazurin reduction test; details: MC2 ATCC 19420, 168 h
[7] = system: Mycolicibacterium fortuitum; assay: Antimycobacterial activity against Mycobacterium fortuitum ATCC 19542 using compound level ranging from 0.3125 to 5 ug/mL after 7 days by resazurin reduction test; details: ATCC 19542, 168 h
[8] = system: Staphylococcus aureus; assay: Antibacterial activity against Staphylococcus aureus ATCC 25923 after 18 to 25 hrs by serial plate dilution method
[9] = system: Streptococcus pyogenes; assay: Antibacterial activity against Streptococcus pyogenes clinical isolate after 18 to 25 hrs by serial plate dilution method
[10] = system: Pseudomonas aeruginosa; assay: Antibacterial activity against Pseudomonas aeruginosa ATCC 27853 after 18 to 25 hrs by serial plate dilution method
[11] = system: Klebsiella pneumoniae; assay: Antibacterial activity against Klebsiella pneumoniae clinical isolates after 18 to 25 hrs by serial plate dilution method
[12] = system: Escherichia coli; assay: Antibacterial activity against Escherichia coli ATCC 25922 after 18 to 25 hrs by serial plate dilution method

SMILES	MIC [1] [mg/L]	MIC [2] [mg/L]	MIC [3] [mg/L]	growth inhibition (GI) [4] [%]	MIC [5] [mg/L]	MIC [6] [mg/L]	MIC [7] [mg/L]	MIC [8] [mg/L]	MIC [9] [mg/L]	MIC [10] [mg/L]	MIC [11] [mg/L]	MIC [12] [mg/L]
NNC(=O)c1ccncc1 [ISONIAZID]	0.7 (≈ 5.1 µM)	50 (≈ 365 µM)	12.5 (≈ 91.1 µM)	95	0.7 (≈ 5.1 µM)	50 (≈ 365 µM)	12.5 (≈ 91.1 µM)					
COc1ccc(NC(=O)NNC(=O)c2cnc3c(C(F)(F)F)cccc3c2O)cc1	1 (≈ 2.38 µM)	10 (≈ 23.8 µM)	10 (≈ 23.8 µM)	90	1.25 (≈ 2.97 µM)	10 (≈ 23.8 µM)	12.5 (≈ 29.7 µM)	0.8 (≈ 1.9 µM)	0.4 (≈ 0.952 µM)	0.4 (≈ 0.952 µM)	0.1 (≈ 0.238 µM)	0.1 (≈ 0.238 µM)
O=C(NNC(=S)Nc1cccc(Cl)c1)c1cnc2c(C(F)(F)F)cccc2c1O	10 (≈ 22.7 µM)	10 (≈ 22.7 µM)	> 100	<90	2.5 (≈ 5.67 µM)	2.5 (≈ 5.67 µM)		0.8 (≈ 1.81 µM)	1.6 (≈ 3.63 µM)	3.12 (≈ 7.08 µM)	3.12 (≈ 7.08 µM)	3.12 (≈ 7.08 µM)
Cn1cccc1/C=N\NC(=O)c1cnc2c(C(F)(F)F)cccc2c1O	1 (≈ 2.76 µM)	1 (≈ 2.76 µM)	10 (≈ 27.6 µM)	90	0.625 (≈ 1.73 µM)	1.25 (≈ 3.45 µM)	10 (≈ 27.6 µM)	0.8 (≈ 2.21 µM)	0.4 (≈ 1.1 µM)	0.4 (≈ 1.1 µM)	0.1 (≈ 0.276 µM)	0.1 (≈ 0.276 µM)
Cc1[nH]cnc1/C=N/NC(=O)c1cnc2c(C(F)(F)F)cccc2c1O	1 (≈ 2.75 µM)	1 (≈ 2.75 µM)	10 (≈ 27.5 µM)	90	1.25 (≈ 3.44 µM)	1.25 (≈ 3.44 µM)	12.5 (≈ 34.4 µM)	0.8 (≈ 2.2 µM)	1.6 (≈ 4.4 µM)	0.4 (≈ 1.1 µM)	0.1 (≈ 0.275 µM)	0.4 (≈ 1.1 µM)
COc1ccc2[nH]cc(/C=N/NC(=O)c3cnc4c(C(F)(F)F)cccc4c3O)c2c1	1 (≈ 2.33 µM)	10 (≈ 23.3 µM)	10 (≈ 23.3 µM)	95	0.625 (≈ 1.46 µM)	10 (≈ 23.3 µM)	10 (≈ 23.3 µM)	0.8 (≈ 1.87 µM)	0.4 (≈ 0.934 µM)	0.4 (≈ 0.934 µM)	0.1 (≈ 0.233 µM)	0.1 (≈ 0.233 µM)
Cc1ccc(NC(=O)NNC(=O)c2cnc3c(C(F)(F)F)cccc3c2O)cc1	1 (≈ 2.47 µM)	10 (≈ 24.7 µM)	10 (≈ 24.7 µM)	90	1.25 (≈ 3.09 µM)	10 (≈ 24.7 µM)	10 (≈ 24.7 µM)	0.8 (≈ 1.98 µM)	0.4 (≈ 0.989 µM)	0.8 (≈ 1.98 µM)	0.1 (≈ 0.247 µM)	0.2 (≈ 0.495 µM)
Cc1cccc2c(/C=N/NC(=O)c3cnc4c(C(F)(F)F)cccc4c3O)c[nH]c12	1 (≈ 2.43 µM)	1 (≈ 2.43 µM)	10 (≈ 24.3 µM)	95	0.625 (≈ 1.52 µM)	1.25 (≈ 3.03 µM)	10 (≈ 24.3 µM)	0.8 (≈ 1.94 µM)	0.4 (≈ 0.97 µM)	0.4 (≈ 0.97 µM)	0.1 (≈ 0.243 µM)	0.1 (≈ 0.243 µM)
COc1ccc(/C=N/NC(=O)c2cnc3c(C(F)(F)F)cccc3c2O)cc1	1 (≈ 2.57 µM)	10 (≈ 25.7 µM)	10 (≈ 25.7 µM)	90	1.25 (≈ 3.21 µM)	10 (≈ 25.7 µM)	10 (≈ 25.7 µM)	0.8 (≈ 2.05 µM)	0.4 (≈ 1.03 µM)	0.8 (≈ 2.05 µM)	0.8 (≈ 2.05 µM)	0.4 (≈ 1.03 µM)
O=C(N/N=C/c1cc(F)ccc1O)c1cnc2c(C(F)(F)F)cccc2c1O	10 (≈ 25.4 µM)	10 (≈ 25.4 µM)	10 (≈ 25.4 µM)	<90	2.5 (≈ 6.36 µM)	10 (≈ 25.4 µM)	10 (≈ 25.4 µM)	0.8 (≈ 2.03 µM)	0.8 (≈ 2.03 µM)	0.4 (≈ 1.02 µM)	0.1 (≈ 0.254 µM)	0.1 (≈ 0.254 µM)
CO[C@H]1/C=C/O[C@@]2(C)Oc3c(C)c(O)c4c(O)c(c(/C=N/N5CCN(C)CC5)c(O)c4c3C2=O)NC(=O)/C(C)=C\C=C\[C@H](C)[C@H](O)[C@@H](C)[C@@H](O)[C@@H](C)[C@H](OC(C)=O)[C@@H]1C [RIFAMPIN]	0.5 (≈ 0.608 µM)	1.5 (≈ 1.82 µM)	1.5 (≈ 1.82 µM)	95	0.5 (≈ 0.608 µM)	1.5 (≈ 1.82 µM)	1.5 (≈ 1.82 µM)					
Cn1nnc2cc(/C=N\NC(=O)c3cnc4c(C(F)(F)F)cccc4c3O)ccc21	10 (≈ 24.1 µM)	> 100	> 100	<90	5 (≈ 12.1 µM)			0.8 (≈ 1.93 µM)	0.4 (≈ 0.965 µM)	1.6 (≈ 3.86 µM)	0.8 (≈ 1.93 µM)	0.4 (≈ 0.965 µM)
O=C(N/N=C/c1ccc(OC(F)(F)C(F)F)cc1)c1cnc2c(C(F)(F)F)cccc2c1O	10 (≈ 21 µM)	10 (≈ 21 µM)	> 100	<90	5 (≈ 10.5 µM)	10 (≈ 21 µM)		3.12 (≈ 6.56 µM)	12.5 (≈ 26.3 µM)	6.25 (≈ 13.1 µM)	3.12 (≈ 6.56 µM)	6.25 (≈ 13.1 µM)
COc1ccc(/C=N/NC(=O)c2cnc3c(C(F)(F)F)cccc3c2O)c(F)c1	1 (≈ 2.46 µM)	10 (≈ 24.6 µM)	10 (≈ 24.6 µM)	95	0.625 (≈ 1.53 µM)	10 (≈ 24.6 µM)	10 (≈ 24.6 µM)	0.8 (≈ 1.96 µM)	0.4 (≈ 0.982 µM)	0.4 (≈ 0.982 µM)	0.1 (≈ 0.246 µM)	0.1 (≈ 0.246 µM)
O=C(N/N=C/c1cnc[nH]1)c1cnc2c(C(F)(F)F)cccc2c1O	1 (≈ 2.86 µM)	> 1000	10 (≈ 28.6 µM)	90	1.25 (≈ 3.58 µM)		10 (≈ 28.6 µM)	0.8 (≈ 2.29 µM)	0.4 (≈ 1.15 µM)	0.8 (≈ 2.29 µM)	0.4 (≈ 1.15 µM)	0.2 (≈ 0.573 µM)
O=C(NNC(=S)Nc1ccccc1F)c1cnc2c(C(F)(F)F)cccc2c1O	1 (≈ 2.36 µM)	10 (≈ 23.6 µM)	10 (≈ 23.6 µM)	95	0.625 (≈ 1.47 µM)	10 (≈ 23.6 µM)	10 (≈ 23.6 µM)	0.8 (≈ 1.89 µM)	0.4 (≈ 0.943 µM)	0.4 (≈ 0.943 µM)	0.1 (≈ 0.236 µM)	0.1 (≈ 0.236 µM)
